From ChEMBL document CHEMBL1201862, “PubChem BioAssay data set” (2004)
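These data come from cells grown in 96-well plates and exposed to compound for 48 hours at five concentrations. The concentration for 50% growth inhibition is given as GI50.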 Calls of active or inactive are those of the source. Rule as the data show it: active = GI50 up to about 1.1 µM and inactive = higher.

Experiments:
Test in all cases: inhibition of tumour cell growth, NCI panel, 48 h
SK-MEL-5 = tested on: SK-MEL-5
SF-268 = tested on: SF-268
HCT-15 = tested on: HCT-15
LOX IMVI = tested on: LOX IMVI
RXF 393 = tested on: RXF 393
CCRF-CEM = tested on: CCRF-CEM
TK-10 = tested on: TK-10
SN12C = tested on: SN12C
UO-31 = tested on: UO-31
NCI-H460 = tested on: NCI-H460
K562 = tested on: K562
MOLT-4 = tested on: MOLT-4
MCF7 = tested on: MCF7
KM12 = tested on: KM12
HOP-62 = tested on: HOP-62
PC-3 = tested on: PC-3
M14 = tested on: M14
SK-MEL-2 = tested on: SK-MEL-2
MDA-MB-435 = tested on: MDA-MB-435
IGROV-1 = tested on: IGROV-1
UACC-62 = tested on: UACC-62
OVCAR-5 = tested on: OVCAR-5
EKVX = tested on: EKVX
Malme-3M = tested on: Malme-3M
HOP-92 = tested on: HOP-92
UACC-257 = tested on: UACC-257
U-251 = tested on: U-251
MDA-MB-231 = tested on: MDA-MB-231
SNB-75 = tested on: SNB-75
ACHN = tested on: ACHN
CAKI-1 = tested on: CAKI-1
HL-60 = tested on: HL-60
A549 = tested on: A549
SK-MEL-28 = tested on: SK-MEL-28
HCC 2998 = tested on: HCC 2998
A498 = tested on: A498
SW-620 = tested on: SW-620
NCI-H226 = tested on: NCI-H226
NCI-H522 = tested on: NCI-H522
OVCAR-8 = tested on: OVCAR-8
OVCAR-3 = tested on: OVCAR-3
SK-OV-3 = tested on: SK-OV-3
Hs-578T = tested on: Hs-578T
786-0 = tested on: 786-0
MDA-N = tested on: MDA-N
NCI-H23 = tested on: NCI-H23
HCT-116 = tested on: HCT-116
BT-549 = tested on: BT-549
SR = tested on: SR
RPMI-8226 = tested on: RPMI-8226
T47D = tested on: T47D
HT-29 = tested on: HT-29
SF-295 = tested on: SF-295
OVCAR-4 = tested on: OVCAR-4
NCI/ADR-RES = tested on: NCI/ADR-RES
COLO 205 = tested on: COLO 205
SNB-19 = tested on: SNB-19
SF-539 = tested on: SF-539
DU-145 = tested on: DU-145

Q: Which results are given for `COC(=O)C(Cc1nc2ccccc2nc1O)C(=O)C(=O)Nc1cc(C(F)(F)F)ccc1Cl` (stereo not drawn)?
A: GI50 (SK-MEL-5): 20.4 µM (inactive); GI50 (SF-268): 14.2 µM (inactive); GI50 (HCT-15): 13.8 µM; GI50 (LOX IMVI): 16.2 µM (inactive); GI50 (RXF 393): 13.8 µM (inactive); GI50 (CCRF-CEM): 1.51 µM (inactive); GI50 (TK-10): 21.1 µM (inactive); GI50 (SN12C): 20.5 µM (inactive); GI50 (UO-31): 15.5 µM (inactive); GI50 (NCI-H460): 19 µM (inactive); GI50 (K562): 12 µM (inactive); GI50 (MOLT-4): 6.17 µM (inactive); GI50 (MCF7): 14.4 µM (inactive); GI50 (KM12): 14.5 µM (inactive); GI50 (HOP-62): 17.4 µM (inactive); GI50 (PC-3): 17 µM (inactive); GI50 (M14): 16.7 µM (inactive); GI50 (SK-MEL-2): 16.1 µM (inactive); GI50 (MDA-MB-435): 19.4 µM (inactive); GI50 (IGROV-1): 12.2 µM (inactive); GI50 (UACC-62): 18.2 µM (inactive); GI50 (OVCAR-5): 19.4 µM (inactive); GI50 (EKVX): 15 µM (inactive); GI50 (Malme-3M): 14.1 µM (inactive); GI50 (HOP-92): 11.6 µM (inactive); GI50 (UACC-257): 28.3 µM (inactive); GI50 (U-251): 9.91 µM (inactive); GI50 (MDA-MB-231): 22.2 µM (inactive); GI50 (SNB-75): 18.6 µM (inactive); GI50 (ACHN): 12.1 µM (inactive); GI50 (CAKI-1): 15.4 µM (inactive); GI50 (HL-60): 10.3 µM (inactive); GI50 (A549): 69.2 µM (inactive); GI50 (SK-MEL-28): 25.4 µM (inactive); GI50 (HCC 2998): 13.6 µM (inactive); GI50 (A498): 24 µM (inactive); GI50 (SW-620): 13.8 µM (inactive); GI50 (NCI-H226): 18 µM (inactive); GI50 (NCI-H522): 3.87 µM (inactive); GI50 (OVCAR-8): 12.1 µM (inactive); GI50 (OVCAR-3): 12.8 µM (inactive); GI50 (SK-OV-3): 35.3 µM (inactive); GI50 (Hs-578T): 12.7 µM (inactive); GI50 (786-0): 12.6 µM (inactive); GI50 (MDA-N): 25.9 µM (inactive); GI50 (NCI-H23): 14.2 µM (inactive); GI50 (HCT-116): 18.2 µM (inactive); GI50 (BT-549): 14.9 µM (inactive); GI50 (SR): 4.58 µM (inactive); GI50 (RPMI-8226): 7.01 µM (inactive); GI50 (T47D): 15.1 µM (inactive); GI50 (HT-29): 15.3 µM (inactive); GI50 (SF-295): 28.3 µM (inactive); GI50 (OVCAR-4): 12.1 µM (inactive); GI50 (NCI/ADR-RES): 15.6 µM (inactive)

Q: How did the GI50 (SK-MEL-5) turn out when `CC1CC(Nc2ccc(Br)cc2)N(C(=O)c2ccc(Br)cc2)O1` (stereo not drawn) was run?
A: > 10 µM (inactive)

Q: What about the GI50 (SF-268) of the same molecule?
A: 1.25 µM (inactive)

Q: What about the GI50 (COLO 205) of the same molecule?
A: 3.49 µM (inactive)

Q: And the GI50 (HCT-15)?
A: 0.526 µM

Q: And the GI50 (RXF 393)?
A: > 10 µM (inactive)

Q: What about the GI50 (CCRF-CEM) of the same molecule?
A: 2.51 µM (inactive)

Q: What about the GI50 (TK-10) of the same molecule?
A: > 10 µM (inactive)

Q: And the GI50 (SN12C)?
A: 2.75 µM (inactive)

Q: And the GI50 (UO-31)?
A: 2.34 µM (inactive)

Q: And the GI50 (NCI-H460)?
A: 7.48 µM (inactive)

Q: And the GI50 (K562)?
A: 0.435 µM (active)

Q: And the GI50 (MOLT-4)?
A: 5.74 µM (inactive)

Q: What about the GI50 (MCF7) of the same molecule?
A: 5.81 µM (inactive)

Q: And the GI50 (HOP-62)?
A: 6.49 µM (inactive)

Q: What about the GI50 (SNB-19) of the same molecule?
A: > 10 µM (inactive)

Q: And the GI50 (PC-3)?
A: 2.23 µM (inactive)

Q: What about the GI50 (M14) of the same molecule?
A: > 10 µM (inactive)

Q: And the GI50 (SK-MEL-2)?
A: > 10 µM (inactive)

Q: And the GI50 (SF-539)?
A: 3.52 µM (inactive)

Q: What about the GI50 (MDA-MB-435) of the same molecule?
A: 1.09 µM (active)

Q: What about the GI50 (IGROV-1) of the same molecule?
A: 9.73 µM (inactive)

Q: What about the GI50 (OVCAR-5) of the same molecule?
A: 6.37 µM (inactive)

Q: And the GI50 (EKVX)?
A: > 10 µM (inactive)

Q: And the GI50 (Malme-3M)?
A: 6.84 µM (inactive)

Q: And the GI50 (UACC-257)?
A: 4.46 µM (inactive)

Q: And the GI50 (MDA-MB-231)?
A: > 10 µM (inactive)

Q: What about the GI50 (SNB-75) of the same molecule?
A: 8.28 µM (inactive)

Q: And the GI50 (ACHN)?
A: 0.678 µM (active)

Q: And the GI50 (CAKI-1)?
A: 4.61 µM (inactive)

Q: What about the GI50 (HL-60) of the same molecule?
A: 3.76 µM (inactive)

Q: And the GI50 (A549)?
A: 3.97 µM (inactive)

Q: And the GI50 (SK-MEL-28)?
A: > 10 µM (inactive)

Q: What about the GI50 (HCC 2998) of the same molecule?
A: > 10 µM (inactive)

Q: And the GI50 (SW-620)?
A: 1.31 µM (inactive)

Q: What about the GI50 (NCI-H226) of the same molecule?
A: > 10 µM (inactive)

Q: What about the GI50 (NCI-H522) of the same molecule?
A: 8.07 µM (inactive)

Q: And the GI50 (OVCAR-8)?
A: 7.4 µM (inactive)

Q: And the GI50 (OVCAR-3)?
A: > 10 µM (inactive)

Q: And the GI50 (SK-OV-3)?
A: > 10 µM (inactive)

Q: What about the GI50 (DU-145) of the same molecule?
A: 2.62 µM (inactive)

Q: What about the GI50 (Hs-578T) of the same molecule?
A: 8.3 µM (inactive)

Q: What about the GI50 (786-0) of the same molecule?
A: > 10 µM (inactive)

Q: And the GI50 (MDA-N)?
A: 8.93 µM (inactive)

Q: What about the GI50 (NCI-H23) of the same molecule?
A: > 10 µM (inactive)

Q: What about the GI50 (HCT-116) of the same molecule?
A: 4.42 µM (inactive)

Q: And the GI50 (BT-549)?
A: > 10 µM (inactive)

Q: What about the GI50 (SR) of the same molecule?
A: 2.19 µM (inactive)

Q: What about the GI50 (RPMI-8226) of the same molecule?
A: 4.78 µM (inactive)

Q: And the GI50 (T47D)?
A: 9.77 µM (inactive)

Q: What about the GI50 (HT-29) of the same molecule?
A: 1.73 µM (inactive)

Q: What about the GI50 (SF-295) of the same molecule?
A: 2.42 µM (inactive)

Q: What about the GI50 (OVCAR-4) of the same molecule?
A: > 10 µM (inactive)

Q: And the GI50 (NCI/ADR-RES)?
A: 2.19 µM (inactive)

Q: What does the source list for `CN1CCN(c2ncc3c(n2)sc2c(=O)n(-c4ccccc4)cnc23)CC1`?
A: GI50 (SK-MEL-5): > 100 µM (inactive); GI50 (SF-268): > 100 µM (inactive); GI50 (COLO 205): > 100 µM (inactive); GI50 (HCT-15): > 100 µM; GI50 (LOX IMVI): > 100 µM (inactive); GI50 (RXF 393): > 100 µM (inactive); GI50 (CCRF-CEM): > 100 µM (inactive); GI50 (TK-10): > 100 µM (inactive); GI50 (SN12C): > 100 µM (inactive); GI50 (UO-31): > 100 µM (inactive); GI50 (NCI-H460): > 100 µM (inactive); GI50 (K562): > 100 µM (inactive); GI50 (MOLT-4): > 100 µM (inactive); GI50 (KM12): > 100 µM (inactive); GI50 (HOP-62): > 100 µM (inactive); GI50 (SNB-19): > 100 µM (inactive); GI50 (PC-3): > 100 µM (inactive); GI50 (M14): > 100 µM (inactive); GI50 (SK-MEL-2): > 100 µM (inactive); GI50 (MDA-MB-435): > 100 µM (inactive); GI50 (IGROV-1): > 100 µM (inactive); GI50 (UACC-62): > 100 µM (inactive); GI50 (OVCAR-5): > 100 µM (inactive); GI50 (Malme-3M): > 100 µM (inactive); GI50 (HOP-92): > 100 µM (inactive); GI50 (UACC-257): > 100 µM (inactive); GI50 (U-251): > 100 µM (inactive); GI50 (MDA-MB-231): > 100 µM (inactive); GI50 (SNB-75): > 100 µM (inactive); GI50 (ACHN): > 100 µM (inactive); GI50 (CAKI-1): > 100 µM (inactive); GI50 (A549): > 100 µM (inactive); GI50 (SK-MEL-28): > 100 µM (inactive); GI50 (HCC 2998): > 100 µM (inactive); GI50 (A498): > 100 µM (inactive); GI50 (SW-620): > 100 µM (inactive); GI50 (NCI-H226): > 100 µM (inactive); GI50 (NCI-H522): > 100 µM (inactive); GI50 (OVCAR-8): > 100 µM (inactive); GI50 (OVCAR-3): > 100 µM (inactive); GI50 (SK-OV-3): > 100 µM (inactive); GI50 (DU-145): > 100 µM (inactive); GI50 (Hs-578T): > 100 µM (inactive); GI50 (786-0): > 100 µM (inactive); GI50 (MDA-N): > 100 µM (inactive); GI50 (NCI-H23): > 100 µM (inactive); GI50 (HCT-116): > 100 µM (inactive); GI50 (BT-549): > 100 µM (inactive); GI50 (SR): > 100 µM (inactive); GI50 (RPMI-8226): > 100 µM (inactive); GI50 (T47D): > 100 µM (inactive); GI50 (HT-29): > 100 µM (inactive); GI50 (SF-295): > 100 µM (inactive); GI50 (OVCAR-4): > 100 µM (inactive); GI50 (NCI/ADR-RES): > 100 µM (inactive)
